Results as given in patent publication US6303617A, “Serotonin-like 9-substituted hypoxanthine and methods of use” (Neotherapeutics, Inc., priority 1999, dated 2001).
pIC50: −log10 of the molar value.

How the values were obtained:
total serum cholesterol [1] = test: Total serum cholesterol in Swiss Webster mice fed a high cholesterol or normal diet; assay type: in vivo; conditions: dosed on days 6 and 7 of diet, serum on day 8; FIG. 5
Description: (§1) On days 6 and 7 the mice were given the compound N-(2-(5-hydroxyindol-3-yl)ethyl)-3-(6-oxohydropurin-9-yl)propanamide (AIT-202), a positive control (bezafibrate), or a vehicle. The animals were fasted overnight and on day 8 trunk blood was collected. Total cholesterol and HDL cholesterol were measured in serum.

HDL cholesterol = HDL cholesterol in serum of Swiss Webster mice fed a high cholesterol or normal diet; assay type: in vivo; conditions: dosed on days 6 and 7 of diet, serum on day 8; FIG. 5
Description: as §1

total serum cholesterol [2] = test: Lowering of total serum cholesterol in mice; assay type: in vivo, mouse; conditions: 300 mg/kg oral, 24 hours before determination; 5 mice; vs control group; decrease of 15% or more considered significant
Description: The activity of N-(2-(5-hydroxyindol-3-yl)ethyl)-3-(6-oxohydropurin-9-yl)propanamide (AIT-202) in lowering total serum cholesterol was tested in mice. Mice (5 mice) were administered N-(2-(5-hydroxyindol-3-yl)ethyl)-3-(6-oxohydropurin-9-yl)propanamide orally at a dosage of 300 mg/kg body weight for 24 hours before cholesterol determination. Total serum cholesterol was determined by standard methods. […] A decrease of 15% or more is considered significant in this test.

monoamine oxidase A/B = test: Inhibition of monoamine oxidase A/B catalytic activity (mouse brain mitochondria, tyramine substrate); assay type: biochemical
Description: Experiments were carried out to determine whether the serotonin analogue N-(2-(5-hydroxyindol-3-yl)ethyl)-3-(6-oxohydropurin-9-yl)propanamide (AIT-202) inhibited monoamine oxidases A and B. These experiments were performed as follows:
Mice (3-5 mice) were sacrificed by cervical dislocation. The brains were isolated and placed immediately in 10 ml cold isolation medium (IM) (500 μM EDTA, 5 mM HEPES, 0.25 M sucrose, and 10 mg/L bovine serum albumin (BSA)). The brains were minced and rinsed twice with 10 mL IM. The brains were then homogenized (5-6 strokes) in 10 mL IM. A volume (20 mL) of IM was then added and the homogenized preparation was centrifuged 8-10 minutes at 600×g at 4° C. The supernatant was transferred to a new tube. […]
For the enzyme assays, 1.0 mL to 1.5 mL 50 mM sodium phosphate, pH 7.4 containing 5 μM scopoletin and 2 U/mL horseradish peroxidase) were aliquoted in the wells of a Falcon 24-well plate (reaction mixture or RM). […] The preincubation was carried out in the Cytofluor® 4000 (PerSeptive Biosystems) and the baseline fluorescence at λex =360 nm and λem =460 nm was recorded. After 6 min, the reading was interrupted and 150-166 μM tyramine (monoamine oxidase A and monoamine oxidase B substrate) or the corresponding amount of water were added according to the plate layout. The reading was continued for approximately 30 minutes at 3-minute intervals. […]

obese mice = test: Control of obesity in naturally obese mice, 14 days oral; assay type: in vivo, mouse; conditions: naturally obese mice (>45 g), daily oral gavage, three doses, FIG. 4
Description: The activity of N-(2-(5-hydroxyindol-3-yl)ethyl)-3-(6-oxohydropurin-9-yl)propanamide (AIT-202) in controlling obesity in mice was tested. Mice from the existing animal colony of NeoTherapeutics (Irvine, Calif.) which were naturally obese (greater than 45 grams in weight) were treated with N-(2-(5-hydroxyindol-3-yl)ethyl)-3-(6-oxohydropurin-9-yl)propanamide daily orally by gavage for 14 days. The mice were dosed with one of three doses of N-(2-(5-hydroxyindol-3-yl)ethyl)-3-(6-oxohydropurin-9-yl)propanamide or vehicle (0.5% methylcellulose). Their weight and food consumption were monitored daily.

O=C(CCn1cnc2c(=O)[nH]cnc21)NCCc1c[nH]c2ccc(O)cc12 [AIT-202, N-(2-(5-hydroxyindol-3-yl)ethyl)-3-(6-oxohydropurin-9-yl)propanamide]
effect on total serum cholesterol (total serum cholesterol [1]): lowers total serum cholesterol | effect on HDL cholesterol (HDL cholesterol): raises HDL cholesterol | decrease of total serum cholesterol (total serum cholesterol [2]): 18% | effect on the catalytic activity of monoamine oxidase A and B (monoamine oxidase A/B; 2-150 μM compound, tyramine substrate, FIGS. 2 and 3): significant effect | pIC50 (monoamine oxidase A/B; estimated, mouse brain mitochondrial protein 0.22-0.24 mg/mL, 150-166 μM tyramine, pH 7.4, 37° C.): ~5.70 | benefit to treatment in obese mice (obese mice): There appears to be benefit to treatment
